Assay results as given in a melting point compilation (Tetko et al.; mined from patent text by program, amines drawn as free bases though some values may be those of a salt).

Row | SMILES | melting point [°C]
1 | CC(=O)NC(=O)CSC(=O)Cc1ccccc1 | 123 to 124
2 | CCCCCCCCCC(C)(C)c1cc(C(=O)Sc2ccc(C(=O)O)cc2)ccc1OC | 186 to 187
3 | O=C1CCN2C(=O)c3cccc(NC(=O)Nc4cc(O)c5ccccc5n4)c3C2C1 (stereo not drawn) | > 260
4 | O=C(/C=C/c1cccc(S(=O)(=O)N2CCN(Cc3ccccc3)CC2)c1)NO | 185
5 | COc1ccccc1-n1c(=O)[nH]c2c(C(N)=O)nc(-c3ccc(O)cc3)nc21 | 362 to 363
6 | CC(C)(C)OC(=O)NN=Cc1cccc(C#N)c1 | 115 to 158
7 | N#CC1CN1C(=O)C1(c2ccc(Cl)cc2)CCCC1 (stereo not drawn) | 80 to 82
8 | CC(C)OC(=O)c1nc(Cl)sc1Cl | 46
9 | CCOC(=O)/C=C/c1ccc(OCCOC)cc1Oc1ncc(Cl)cc1Cl | 70.7 to 71.3
10 | CNc1cc(OCC(O)CN2C(=O)CCC2=O)ccc1[N+](=O)[O-] (stereo not drawn) | 152
11 | CC1(C)OCC(COc2cc(O)nc(N)n2)O1 (stereo not drawn) | 258
12 | Cc1cnc(C(=O)NCCc2ccc(S(N)(=O)=O)cc2)cn1 | 190 to 200
13 | CCCCCCCCCCCCCCOC(=O)c1cc(C(=O)OCCCCCCCCCCCCCC)cc([N+](=O)[O-])c1 | 60 to 61
14 | CCCc1ccc(-c2ccc(-c3ccc(OC)cc3)nn2)cc1 | 128 to 130
15 | COCn1c(=O)n(-c2ccc3c(c2)OCO3)c2ncccc21 | 152 to 153
16 | CS(=O)(=O)N1CCCn2c(nc3c(N)nc4c(c32)CCCC4)C1 | 270 to 272
17 | CCOC(=O)Cc1ccc(OCCN2CCN(c3cc(Cl)nnc3Cl)CC2)cc1 | 128 to 130
18 | CCN(C(=O)OC(C)(C)C)C(Cc1ccccc1)C(=O)NC(CCSC)C(=O)NCC(=O)NC(Cc1ccccc1)C(=O)NC1C2CC3CC(C2)CC1C3 (stereo not drawn) | 175 to 178
19 | Cc1cc(-c2cc(C(F)(F)F)n3ncc(-c4ccnc(CO)c4)c3n2)ccc1Cl | 220
20 | COC(=O)c1c(Cl)cc(Cl)c2ccc(Cl)cc12 | 113 to 115

Row | SMILES | melting point [°C]
21 | Cc1nn(CC(=O)O)cc1C(=O)Nc1ccc(OCC(C)(C)C)c(C#N)c1 | 234 to 245
22 | CC(C)(O)CC1CN=C(c2cc3cc(Oc4ccc(S(C)(=O)=O)cn4)cc(OC4CCOCC4)c3[nH]2)S1 (stereo not drawn) | 129 to 130
23 | O=C1N(Cc2ccc(Cl)cc2)c2ccccc2C1(O)c1ccoc1 (stereo not drawn) | 128 to 130
24 | COc1ccc(Nc2cc3c(cc2Nc2ccc(OC)cc2)C(=O)NC3=O)cc1 | 191 to 193
25 | OC(Cn1cncn1)(c1ccc(Cl)cn1)c1ccc(Cl)cn1 | 98 to 100
26 | Cc1ccc(C)n1-c1ccc2ccc3[nH]c(=O)c(=O)n(CC(=O)NCc4ccccc4)c3c2c1 | 243 to 244
27 | O=c1c2ccccc2nnn1CCN1CC=C(c2c[nH]c3ccccc23)CC1 | 230
28 | O=C1CCC2N1CC(=O)N2c1ccccc1 (stereo not drawn) | 185 to 188
29 | Cc1cc(Cl)ccc1N1CCCN(CC(C)C)C1=S | 88 to 90
30 | CCOC(=O)c1cnc(N(C)C)nc1 | 65
31 | CCCCN(CCCC)c1ccc(C=Cc2ccc(C=CC3=C(C#N)C(=C(C#N)C#N)OC3(C)C)s2)c(OCc2ccccc2)c1 | 218 to 219
32 | Cc1[nH]c(=S)n(Nc2cccc(F)c2)c1-c1ccccc1 | 226
33 | CC1=C(C(=O)OCCN(C)Cc2ccccc2)C(c2cccc3c(=O)c(C)c(-c4ccccc4)oc23)C(C(=O)OC(C)C)=C(C)N1 (stereo not drawn) | 170 to 172
34 | O=C(CO[C@H]1Cc2c(cccc2OCc2ccccc2)C[C@H]1OCC(=O)N1CCOCC1)N1CCOCC1 (relative stereo) | 106 to 110
35 | Cc1ccc2c(c1)Nc1ccccc1N=C2N1CCN[C@@H](CCc2ccccc2)C1 | 64 to 80
36 | CCS(=O)(=O)N[C@H](C(=O)NCCc1cc(Br)c(O)c(OC)c1)C(C)C | 145 to 147
37 | C[C@H](NC(=O)Nc1cccc(CC(=O)O)c1)C(=O)N1[C@@H](c2ccccc2F)SC[C@H]1C(=O)OC(C)(C)C | 110
38 | O=C(O)CC1(CNC(=O)c2ccc(CO[N+](=O)[O-])cc2)CCCCC1 | 127 to 128
39 | Cc1nc2ccc3c(c2o1)OC(CN1C2CCC1CC(O)(c1cccc(C(F)(F)F)c1)C2)CO3 (stereo not drawn) | 148 to 150
40 | COC(=O)CC(O)C(O)CC(=O)OC (stereo not drawn) | 80 to 81

Now from value to compound:

Row | melting point [°C] | SMILES
41 | 209 to 212 | CC(=O)Oc1cccc(C(=O)Nc2nc(S(C)(=O)=O)cs2)c1
42 | 111 to 113 | COc1ccc2c(c1)NC(=O)C(CCO)O2 (stereo not drawn)
43 | 113 to 115 | COc1cc(/C=C/C(=O)C#CCO)cc(OC)c1OC
44 | 219 to 221 | Cc1nc(CC2CCc3c(C)c4ccccc4n3C2=O)c(C)[nH]1 (stereo not drawn)
45 | 102 to 103 | CCCCOC(=O)[C@H]1CN(c2cc(F)c(N3CCSCC3)c(F)c2)C(=O)O1
46 | 185 to 188 | COc1cc(C(=O)c2ccc([N+](=O)[O-])cc2)c(CC(=O)O)cc1Cl
47 | 247 | N#Cc1cccc(C2=Nc3ccc(-c4cc(F)ccc4F)cc3NC(=O)C2)c1
48 | 98 to 101 | COC=C(C(=O)OC)N(C)c1ncnc(-c2ccccc2)n1
49 | 168 to 171 | CCN1CCNC(=O)c2ccc(Nc3ncc(Cl)c(Nc4ccccc4C(=O)NC)n3)cc21
50 | 231 to 233 | CC(C)c1ccc(N(C)C(=O)Cn2cnc3c2c(=O)n(C)c(=O)n3C)cc1
51 | 136 to 139 | CC(C)c1cc(CC2SCNC2=O)cc(C(C)C)c1O (stereo not drawn)
52 | 210 to 213 | Cn1ccc2cc(NC(=O)Nc3cncnc3)ccc21
53 | 125 to 127 | CC(C)c1cccc(C(C)C)c1NC(=O)CN(CC1(Nc2ccccc2)CCCCC1)C(=O)OC(C)(C)C
54 | 160 to 161 | CCCCCOC(=O)C(N)C=CCP(=O)(O)O (stereo not drawn)
55 | 84 to 85 | CCCCC(N=O)C(C)(C)Cl (stereo not drawn)
56 | 113 to 115 | Clc1ccc(-c2ccc(Cl)nc2)cc1
57 | 136 to 138 | O=C(Cn1cc(-c2ccc3nnn(Cc4ccc5ncccc5c4)c3n2)cn1)N1CCCC1
58 | 209 to 217 | COc1cc2ncnc(N3CCCCc4ccc(Br)cc43)c2cc1OC
59 | 209 to 211 | Nc1ncnc2c1cnn2C1CCC(OCC(F)c2ccccc2)C(F)C1 (stereo not drawn)
60 | 188 to 190 | Cn1nc2c(-c3ccc(Cl)cc3Cl)cccc2c1C(=O)NCCO

Row | melting point [°C] | SMILES
61 | 83 to 85 | CCCCCCCCCCCCCCCCCCNS(=O)(=O)c1cccc(C(F)(F)F)c1
62 | 126 to 128 | O=C1CCc2cc3ccccc3n2C1
63 | 172 to 175 | COC1(OC)CC(c2ccccc2)N(O)C(c2ccccc2)C1 (stereo not drawn)
64 | 102 to 104 | CN(C)c1cc(Br)cc(Sc2ccc([N+](=O)[O-])cc2)c1
65 | 108 to 110 | O=C(CCCc1cccnc1)N1CCC(CC(c2ccc(F)cc2)c2ccc(F)cc2)CC1
66 | 205 to 206 | COc1ccc(-c2cc(-c3nccs3)c(=O)n(C)c2-c2ccc(C)o2)cc1
67 | 146 to 152 | CCCCNC(=O)NS(=O)(=O)c1ccccc1S(=O)(=O)N(C)C(F)(F)C(F)F
68 | 86 to 87 | O=C(CCc1cccnc1)c1ccccc1
69 | 190 to 191 | CCC(=O)N(C)c1cccc(-c2ccc3nnc(N)n3n2)c1
70 | 206 to 208 | NC(=O)c1ccc(-c2ccc3nnn(Cc4cc5cccnc5cc4F)c3n2)cc1F
71 | 146 to 148 | O=C1Nc2ccc(F)cc2C1CCCCN1CCN(c2cc(Cl)cc3c2OCCO3)CC1 (stereo not drawn)
72 | 92 to 94 | CC1(C)OCC(N2CCC(Cc3ccccc3)CC2)O1 (stereo not drawn)
73 | 123 to 126 | CC(=O)C=C(c1ccc(C#N)cc1)n1ccnc1
74 | 209 to 210 | CC(=O)OCC1c2c(c3ccccc3c3ccccc23)-c2c1c1ccccc1c1ccccc21
75 | 77 | COC1(c2cccc(OCc3ccc4ccc(F)cc4c3)c2)CC(C)OC(C)C1 (stereo not drawn)
76 | 86 | CNc1ccccc1CNC(=O)C1Cc2ccccc2N1S(=O)(=O)c1ccc(-c2cccc(C(F)(F)F)c2)cc1 (stereo not drawn)
77 | 205 | O=C1c2ncccc2C(=O)c2c(-c3ccccc3NC(=O)C(F)(F)F)ccnc21
78 | 95 to 100 | Oc1ccc(OCCN2CCN(c3ccccc3)CC2)cc1
79 | 137 to 138 | COc1ccc(Cc2cnc(NCCSCc3csc(CN(C)C)n3)[nH]c2=O)cn1
80 | 193 to 196 | O=C(O)CN1C(=O)C2(COc3cc4c(cc32)OCCO4)c2ccccc21 (stereo not drawn)

Row | melting point [°C] | SMILES
81 | 75.7 to 116 | O=C(N[C@H]1CN(C(=O)NS(=O)(=O)N2CCN(NC(=O)OCc3ccccc3)C2=O)C1=O)OCc1ccccc1
82 | 164 to 166 | COc1ccccc1C(=O)Nc1nc2c(s1)CN(C)CC2
83 | 97 to 103 | O=C(Nc1ccc(Br)cc1CO)C(F)(F)F
84 | 118 to 120 | O=C1c2ccccc2C(=O)N1C1CN(C(c2ccccc2)c2ccccc2)C1
85 | 227 to 228 | OCC1OC(c2n[nH]c3cncnc23)C(O)C1O (stereo not drawn)
86 | 140 | COc1ccc(CN(C)CCCSc2ccc(NC(=O)c3cccc4c(=O)c5ccccc5[nH]c34)cc2)cc1OC
87 | 216 to 217 | Cc1ccc(-c2ccc(F)cc2)cc1-c1c(O)c(C)nn(C)c1=O
88 | 65 | COCCn1nc(C(=O)NCc2ccc(OC(C)(C)C(=O)O)c(C)c2)cc1-c1ccc(C(C)(C)C)cc1
89 | 86 to 87 | CCCCCCc1ccc(-c2ccc(COC(c3ccccc3)(c3ccccc3)c3ccccc3)cc2[N+](=O)[O-])cc1
90 | 121 | Cc1ccc(-c2c(Cl)nc3ncnn3c2NC(C)C)c(F)c1
91 | 88 to 90 | CCCc1cc2c(c3ccc(OC)cc13)OCc1cc(OC)ccc1-2
92 | 96 | Cc1cc(-n2ccnc2)c2cccc(OCc3c(Cl)ccc(S(=O)(=O)N4CCC[C@H]4C(=O)NCCCN4CCOCC4)c3Cl)c2n1
93 | 175 to 177 | O=[N+]([O-])c1ccc2oc(-c3ccco3)nc2c1
94 | 142 to 144 | O=[N+]([O-])c1ccc(-c2ncnn2-c2ccc(Br)cc2)cc1
95 | 162 to 164 | c1ccc2c(c1)CSc1ccccc1C2n1ccnc1 (stereo not drawn)
96 | 122 to 126 | CCOC(=O)c1cc(C)c(Cl)nc1Nc1ccccc1F
97 | 160 to 161 | O=C1Cc2cccc(Sc3ccccc3)c2N1
98 | 105 to 107 | CC(C)NS(=O)(=O)c1cc(Br)cc(Br)c1
